In patent publication US20220112479A1, “COMPOUNDS STABILIZING AMYLASES IN LIQUIDS” (BASF SE, priority 2018, published 2022):

Columns and labels:
Format in all cases: biochemical
Amy1=Stainzyme = assay: amylase storage stability in liquid formulation (pNP release from Ethyliden-blocked-pNPG7); parameters: key: % of activity in reference formulation at time 0; conditions: base formulation I., 1.5 wt % component (a), storage at 37° C.
Method in brief: (§1)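 Amylase (dosed as active protein) was stored at 37 °C in liquid base formulations with or without test or comparative compounds. Activity at set time points was measured as pNP release (A405) from blocked-pNPG7 with excess α-glucosidase, expressed relative to the reference formulation at time 0.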

Amy2=Amplify = assay: as above; parameters: key: % of activity in reference formulation at time 0; conditions: storage at 37° C.
Method in brief: as §1

[1] = test system: Amy3=Stainzyme Plus L (12L); assay: as above; conditions: base formulation II., 1.5 wt % component (a), storage at 37° C.
Procedure: (§2) The storage stability of amylase was assessed at 37° C.
Base test formulations were manufactured by making base formulations I to V by mixing the components according to Table 1.
Amylases used: Amy1=Stainzyme, Amy2=Amplify, Amy3=Stainzyme Plus L (12L)
The respective component (a) or comparative compound was added, if applicable, to the respective base formulation in amounts as indicated in Table 1.
The amount of amylase as provided in Table 1 refers to active protein.
Water was added to accomplish the balance to 100.
(§3) Amylase activity at certain points in time as indicated in Table 2 was measured quantitatively by the release of the chromophore para-nitrophenol (pNP) from the substrate (Ethyliden-blocked-pNPG7, Roche Applied Science 10880078103). The alpha-amylase degrades the substrate into smaller molecules and α-glucosidase (Roche Applied Science 11626329103), which is present in excess compared to the amylase, process these smaller products until pNP is released; the release of pNP, measured via an increase of absorption at 405 nm, is directly proportional to the amylase activity of the sample. Amylase standard: Termamyl 120 L (Sigma 3403).
(§4) The amylolytic activity values provided were calculated referring to the value determined in the reference formulation at the time 0.
(§5) The nomenclature of formulations is as follows: the Roman number before the full stop characterizes the base formulation, the Arabian number the type of compound (A.# compound according to invention (component (a)); B.# comparative compound).

Amylase = assay: amylase storage stability in liquid laundry formulation (pNP release from Ethyliden-blocked-pNPG7); parameters: key: % of activity in reference formulation at time 0; conditions: 2.5 wt % component (a), storage at 37° C.
Procedure: as §2
Base test formulations were manufactured by making base formulations VI to IX by mixing the components according to Table 4.
as §3, with “Table 5” for “Table 2”
as §4, §5

In the case of `CCCOC(=O)CC(O)(CC(=O)OCCC)C(=O)OCCC` [A.2, Tripropylcitrate], the “amylase activity, referring to reference formulation at time 0” value (from here on “amylase activity, referring”) (Amy1=Stainzyme; 3 d) was 100, the “amylase activity, referring” value (Amy1=Stainzyme; 7 d) was 96 and the “amylase activity, referring” value (Amy1=Stainzyme; 14 d) was 90. The “amylase activity, referring” value (Amy1=Stainzyme; 21 d) was 84, the “amylase activity, referring” value (Amy1=Stainzyme; 28 d) was 79 and the “amylase activity, referring” value (Amy1=Stainzyme; 42 d) was 66. The “amylase activity, referring” value (Amy1=Stainzyme; T0) was 101, the “amylase activity, referring” value (Amy2=Amplify; base formulation III., 1.5 wt % component (a), 3 d) was 102 and the “amylase activity, referring” value (Amy2=Amplify; base formulation III., 1.5 wt % component (a), 7 d) was 97. The “amylase activity, referring” value (Amy2=Amplify; base formulation III., 1.5 wt % component (a), 14 d) was 93, the “amylase activity, referring” value (Amy2=Amplify; base formulation III., 1.5 wt % component (a), 21 d) was 87 and the “amylase activity, referring” value (Amy2=Amplify; base formulation III., 1.5 wt % component (a), 28 d) was 81. For the same molecule, the “amylase activity, referring” value (Amy2=Amplify; base formulation III., 1.5 wt % component (a), 42 d) was 71, the “amylase activity, referring” value (Amy2=Amplify; base formulation III., 1.5 wt % component (a), T0) was 100 and the “amylase activity, referring” value (Amy2=Amplify; base formulation V., 2.0 wt % component (a), 3 d) was 95. The “amylase activity, referring” value (Amy2=Amplify; base formulation V., 2.0 wt % component (a), 7 d) was 90, the “amylase activity, referring” value (Amy2=Amplify; base formulation V., 2.0 wt % component (a), 14 d) was 84 and the “amylase activity, referring” value (Amy2=Amplify; base formulation V., 2.0 wt % component (a), 21 d) was 76. For the same molecule, the “amylase activity, referring” value (Amy2=Amplify; base formulation V., 2.0 wt % component (a), 28 d) was 66, the “amylase activity, referring” value (Amy2=Amplify; base formulation V., 2.0 wt % component (a), 42 d) was 54 and the “amylase activity, referring” value (Amy2=Amplify; base formulation V., 2.0 wt % component (a), T0) was 98. The “amylase activity, referring” value ([1]; 3 d) was 100, the “amylase activity, referring” value ([1]; 7 d) was 97 and the “amylase activity, referring” value ([1]; 14 d) was 93. For the same molecule, the “amylase activity, referring” value ([1]; 21 d) was 87, the “amylase activity, referring” value ([1]; 28 d) was 83 and the “amylase activity, referring” value ([1]; 42 d) was 69. For the same molecule, the “amylase activity, referring” value ([1]; T0) was 102, the “amylase activity, referring” value (Amylase; laundry base formulation IX. (2.5 DTPA), 3 d) was 93 and the “amylase activity, referring” value (Amylase; laundry base formulation IX. (2.5 DTPA), 7 d) was 85. For the same molecule, the “amylase activity, referring” value (Amylase; laundry base formulation IX. (2.5 DTPA), 14 d) was 81, the “amylase activity, referring” value (Amylase; laundry base formulation IX. (2.5 DTPA), 21 d) was 72 and the “amylase activity, referring” value (Amylase; laundry base formulation IX. (2.5 DTPA), 28 d) was 63. The “amylase activity, referring” value (Amylase; laundry base formulation IX. (2.5 DTPA), T0) was 100, the “amylase activity, referring” value (Amylase; laundry base formulation VI. (2.0 EDTA), 3 d) was 94 and the “amylase activity, referring” value (Amylase; laundry base formulation VI. (2.0 EDTA), 7 d) was 86. The “amylase activity, referring” value (Amylase; laundry base formulation VI. (2.0 EDTA), 14 d) was 80, the “amylase activity, referring” value (Amylase; laundry base formulation VI. (2.0 EDTA), 21 d) was 74 and the “amylase activity, referring” value (Amylase; laundry base formulation VI. (2.0 EDTA), 28 d) was 65. For the same molecule, the “amylase activity, referring” value (Amylase; laundry base formulation VI. (2.0 EDTA), T0) was 101, the “amylase activity, referring” value (Amylase; laundry base formulation VIII. (2.5 DTPA, no Savinase), 3 d) was 94 and the “amylase activity, referring” value (Amylase; laundry base formulation VIII. (2.5 DTPA, no Savinase), 7 d) was 87. The “amylase activity, referring” value (Amylase; laundry base formulation VIII. (2.5 DTPA, no Savinase), 14 d) was 83, the “amylase activity, referring” value (Amylase; laundry base formulation VIII. (2.5 DTPA, no Savinase), 21 d) was 77 and the “amylase activity, referring” value (Amylase; laundry base formulation VIII. (2.5 DTPA, no Savinase), 28 d) was 69. For the same molecule, the “amylase activity, referring” value (Amylase; laundry base formulation VIII. (2.5 DTPA, no Savinase), T0) was 99.
